How the values were obtained:
Assay in all cases: Test C postemergence
[1] = test system: johnsongrass; assay type: in vivo, Sorghum halepense
In short: (§1)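 Seeds sown in loam–sand blend and treated preemergence with test chemicals in non-phytotoxic solvent with surfactant; postemergence plants in peat-based medium, treated at 2–18 cm (1- to 4-leaf stage). Greenhouse 13 to 15 days, then visual rating versus controls, 0 (no effect) to 100 (complete control).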

[2] = test system: soybean; assay type: in vivo, Glycine max
In short: as §1

[3] = test system: kochia; assay type: in vivo, Kochia scoparia
In short: as §1

[4] = test system: corn; assay type: in vivo, Zea mays
In short: as §1

[5] = test system: blackgrass; assay type: in vivo, Alopecurus myosuroides
In short: as §1

[6] = test system: wheat; assay type: in vivo, Triticum aestivum; conditions: for Wheat plant response rating: scale 0 to 100
In short: as §1

[7] = test system: velvetleaf; assay type: in vivo, Abutilon theophrasti; conditions: for Velvetleaf plant response rating: scale 0 to 100
In short: as §1

[8] = test system: chickweed; assay type: in vivo, Stellaria media
In short: as §1

[9] = test system: pigweed; assay type: in vivo, Amaranthus retroflexus
In short: as §1

[10] = test system: foxtail, giant; assay type: in vivo, Setaria faberii
In short: as §1

[11] = test system: galium; assay type: in vivo, Galium aparine
In short: as §1

[12] = test system: lambsquarters; assay type: in vivo, Chenopodium album; conditions: postemergence
In short: as §1

[13] = test system: oat, wild; assay type: in vivo, Avena fatua
In short: as §1

[14] = test system: ragweed; assay type: in vivo, Ambrosia elation
In short: as §1

[15] = test system: ryegrass, Italian; assay type: in vivo, Lolium multiflorum
In short: as §1

[16] = test system: barnyardgrass; assay type: in vivo, Echinochloa crus-galli
In short: as §1

[17] = test system: crabgrass, large; assay type: in vivo, Digitaria sanguinalis
In short: as §1

[18] = Postemergence, 31 g ai/ha, visually evaluated after 13 to 15 days
[19] = postemergence, 62 g ai/ha, scale 0 to 100
[20] = postemergence, 250 g ai/ha, scale 0 to 100 (0 no effect, 100 complete control)
[21] = postemergence, 125 g ai/ha, scale 0 to 100, 0 no effect, 100 complete control

SMILES: CCCc1cc(C(=O)NCC(F)(F)F)nn1Cc1cc(C(F)(F)F)nn1C [Compound 138]
- Plant response rating (scale of 0 to 100 where 0 is no effect and 100 is complete control), Johnsongrass [1, 18]: 10
- Johnsongrass plant response rating [1, 19]: 10
- Plant response rating, Johnsongrass [1, 20]: 20
- Plant response rating, Johnsongrass [1, 21]: 10
- Plant response rating (scale of 0 to 100 where 0 is no effect and 100 is complete control), Soybean [2, 18]: 65
- Soybean plant response rating [2, 19]: 75
- Plant response rating, Soybean [2, 20]: 65
- Soybean plant response rating [2, 21]: 90
- Plant response rating (scale of 0 to 100 where 0 is no effect and 100 is complete control), Kochia [3, 18]: 100
- Kochia plant response rating [3, 19]: 90
- Plant response rating, Kochia [3, 20]: 90
- Plant response rating, Kochia [3, 21]: 90
- Plant response rating (scale of 0 to 100 where 0 is no effect and 100 is complete control), Corn [4, 18]: 15
- Corn plant response rating [4, 19]: 15
- Plant response rating, Corn [4, 20]: 30
- Plant response rating, Corn [4, 21]: 15
- Plant response rating (scale of 0 to 100 where 0 is no effect and 100 is complete control), Blackgrass [5, 18]: 5
- Blackgrass plant response rating [5, 19]: 10
- Plant response rating, Blackgrass [5, 20]: 50
- Plant response rating, Blackgrass [5, 21]: 20
- Plant response rating (scale of 0 to 100 where 0 is no effect and 100 is complete control), Wheat [6, 18]: 5
- Wheat plant response rating ([6]; postemergence, 62 g ai/ha): 5
- Plant response rating, Wheat [6, 20]: 15
- Wheat plant response rating ([6]; postemergence): 15
- Plant response rating (scale of 0 to 100 where 0 is no effect and 100 is complete control), Velvetleaf [7, 18]: 30
- Velvetleaf plant response rating ([7]; postemergence, 62 g ai/ha): 40
- Plant response rating, Velvetleaf [7, 20]: 50
- Velvetleaf plant response rating ([7]; postemergence): 25
- Plant response rating (scale of 0 to 100 where 0 is no effect and 100 is complete control), Chickweed [8, 18]: 70
- Chickweed plant response rating [8, 19]: 80
- Plant response rating, Chickweed [8, 20]: 90
- Plant response rating, Chickweed [8, 21]: 80
- Plant response rating (scale of 0 to 100 where 0 is no effect and 100 is complete control), Pigweed [9, 18]: 75
- Pigweed plant response rating [9, 19]: 85
- Plant response rating, Pigweed [9, 20]: 85
- Plant response rating, Pigweed [9, 21]: 80
- Plant response rating (scale of 0 to 100 where 0 is no effect and 100 is complete control), Foxtail, Giant [10, 18]: 5
- Foxtail, Giant plant response rating [10, 19]: 5
- Plant response rating, Foxtail, Giant [10, 20]: 50
- Plant response rating, Foxtail, Giant [10, 21]: 10
- Plant response rating (scale of 0 to 100 where 0 is no effect and 100 is complete control), Galium [11, 18]: 65
- Galium plant response rating [11, 19]: 70
- Plant response rating, Galium [11, 20]: 80
- Plant response rating, Galium [11, 21]: 75
- Lambsquarters plant response rating ([12]; 62 g ai/ha, scale 0 to 100): 40
- Plant response rating, Lambsquarters ([12]; 250 g ai/ha, scale 0 to 100 (0 no effect, 100 complete control)): 95
- Plant response rating, Lambsquarters ([12]; 125 g ai/ha, scale 0 to 100, 0 no effect, 100 complete control): 75
- Plant response rating (scale of 0 to 100 where 0 is no effect and 100 is complete control), Oat, Wild [13, 18]: 10
- Oat, Wild plant response rating [13, 19]: 20
- Plant response rating, Oat, Wild [13, 20]: 30
- Plant response rating, Oat, Wild [13, 21]: 10
- Plant response rating (scale of 0 to 100 where 0 is no effect and 100 is complete control), Ragweed [14, 18]: 10
- Ragweed plant response rating [14, 19]: 30
- Plant response rating, Ragweed [14, 20]: 60
- Plant response rating, Ragweed [14, 21]: 50
- Plant response rating (scale of 0 to 100 where 0 is no effect and 100 is complete control), Ryegrass, Italian [15, 18]: 5
- Ryegrass, Italian plant response rating [15, 19]: 15
- Plant response rating, Ryegrass, Italian [15, 20]: 10
- Plant response rating, Ryegrass, Italian [15, 21]: 5
- Plant response rating (scale of 0 to 100 where 0 is no effect and 100 is complete control), Barnyardgrass [16, 18]: 10
- Barnyardgrass plant response rating [16, 19]: 25
- Plant response rating, Barnyardgrass [16, 20]: 65
- Plant response rating, Barnyardgrass [16, 21]: 20
- Plant response rating (scale of 0 to 100 where 0 is no effect and 100 is complete control), Crabgrass, Large [17, 18]: 5
- Crabgrass, Large plant response rating [17, 19]: 5
- Plant response rating, Crabgrass, Large [17, 20]: 70
- Plant response rating, Crabgrass, Large [17, 21]: 30
